According to patent US6780650B2 (priority 2000, dated 2004):
Like-named read-outs stand apart in the source and are kept apart here.

Key:
hVR1 receptor [1] = target: T1, hVR1 receptor (Homo sapiens, UniProt Q8NER1); details: read-out: IC50, inhibition of [^3H]RTX binding to hVR1 receptor
T1 construct: expressed in transfected cells; host or cells: HEK 293 (HEK 293-hVR1, zeocin-selected); membranes

hVR1 receptor [2] = target: T1, hVR1 receptor; format: binding; details: pH 8
hVR1 receptor [3] = target: T1, hVR1 receptor; format: binding; details: for Kd: read-out: Kd of [^3H]RTX binding to hVR1 receptor

T1 sequence (Q8NER1 whole entry): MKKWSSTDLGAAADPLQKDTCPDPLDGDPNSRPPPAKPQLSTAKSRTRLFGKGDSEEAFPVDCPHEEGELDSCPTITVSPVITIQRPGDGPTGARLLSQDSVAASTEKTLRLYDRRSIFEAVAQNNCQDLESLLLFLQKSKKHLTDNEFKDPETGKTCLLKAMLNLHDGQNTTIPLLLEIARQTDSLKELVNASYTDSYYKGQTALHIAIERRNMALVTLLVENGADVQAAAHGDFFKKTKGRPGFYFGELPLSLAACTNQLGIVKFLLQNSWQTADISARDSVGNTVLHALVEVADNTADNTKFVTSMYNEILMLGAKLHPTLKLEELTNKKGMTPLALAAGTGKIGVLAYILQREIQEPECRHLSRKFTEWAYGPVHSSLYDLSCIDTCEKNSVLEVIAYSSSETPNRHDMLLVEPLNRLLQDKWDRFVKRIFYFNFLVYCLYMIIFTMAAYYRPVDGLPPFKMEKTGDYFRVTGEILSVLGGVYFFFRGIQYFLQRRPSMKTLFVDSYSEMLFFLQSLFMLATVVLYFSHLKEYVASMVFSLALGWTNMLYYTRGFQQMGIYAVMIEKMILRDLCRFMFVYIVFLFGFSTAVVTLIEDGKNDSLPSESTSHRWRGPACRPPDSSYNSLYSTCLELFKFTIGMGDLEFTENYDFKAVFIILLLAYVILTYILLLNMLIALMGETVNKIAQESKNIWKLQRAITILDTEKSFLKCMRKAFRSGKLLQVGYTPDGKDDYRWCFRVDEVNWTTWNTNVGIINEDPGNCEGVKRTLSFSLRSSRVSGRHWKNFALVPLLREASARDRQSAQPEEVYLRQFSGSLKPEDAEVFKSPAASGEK

C=C(C)[C@]12C[C@@H](C)[C@@]34O[C@](Cc5ccccc5)(O[C@@H]1[C@@H]3C=C(COC(=O)Cc1ccc(O)c(OC)c1)C[C@]1(O)C(=O)C(C)=C[C@@H]41)O2 [Resiniferatoxin]
IC50 (hVR1 receptor [1]; pH 7.4): 0.78 ± 0.15 nM
IC50 (hVR1 receptor [1]; pH 8.6): 0.25 ± 0.03 nM

O=C(O)CN(CCOCCOCCN(CC(=O)O)CC(=O)O)CC(=O)O [EGTA]
inhibition of [^3H]RTX binding (hVR1 receptor [2]): 70%

C=C(C)[C@]12C[C@@H](C)[C@@]34O[C@](Cc5ccccc5)(O[C@@H]1[C@@H]3C=C(COC(=O)Cc1ccc(O)c(OC)c1)C[C@]1(O)C(=O)C(C)=C[C@@H]41)O2 [[^3H]RTX, [^3H]resiniferatoxin]
Kd (hVR1 receptor [3]; pH 5.1): 6.62 ± 5.58 nM
Bmax of [^3H]RTX binding to hVR1 receptor (hVR1 receptor [3]; pH 7.4): 928 ± 53 fmol/mg protein
Kd (hVR1 receptor [3]; pH 7.4): 0.65 ± 0.12 nM
Bmax of [^3H]RTX binding to hVR1 receptor (hVR1 receptor [3]; pH 8.6): 869 ± 41 fmol/mg protein
Kd (hVR1 receptor [3]; pH 8.6): 0.18 ± 0.04 nM
Bmax of [^3H]RTX binding to hVR1 receptor (hVR1 receptor [3]; pH 9.6): 661 ± 127 fmol/mg protein
Kd (hVR1 receptor [3]; pH 9.6): 0.6 ± 0.31 nM
